From patent publication US8530467B2, “Benzoimidazole compounds and uses thereof” (Neomed Institute, priority 2009, dated 2013)

Legend:
Assay type in all cases: cell-based
[1] = target: T1, hP2X3 (human Purinergic P2X receptors subtype 3) (Homo sapiens, UniProt P56373); assay: FLIPR FLUO-4 AM calcium assay, α,β-methylene-ATP as agonist (Method 3); conditions: hP2X3-expressing RLE cells, 500 nM α,β-methylene-ATP, read-out: Human P2X3 IC50 (μM) Method 3
T1 construct: expressed in transfected cells
T1 sequence (P56373 1-397): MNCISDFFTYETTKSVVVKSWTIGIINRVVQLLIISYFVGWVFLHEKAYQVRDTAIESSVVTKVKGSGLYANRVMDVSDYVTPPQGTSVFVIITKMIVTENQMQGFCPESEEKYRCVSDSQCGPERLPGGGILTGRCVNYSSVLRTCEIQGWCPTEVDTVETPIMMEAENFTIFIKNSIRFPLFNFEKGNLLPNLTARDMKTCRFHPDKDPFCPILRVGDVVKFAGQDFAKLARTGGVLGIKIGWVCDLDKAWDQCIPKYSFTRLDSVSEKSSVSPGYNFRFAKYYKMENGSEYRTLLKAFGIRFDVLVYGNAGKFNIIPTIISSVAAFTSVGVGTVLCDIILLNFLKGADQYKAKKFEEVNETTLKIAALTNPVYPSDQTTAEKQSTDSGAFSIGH
Protocol: (§1) The antagonist properties of compounds in the present invention were assayed as inhibitors of intracellular calcium increase induced by activation of hP2X3 (human Purinergic P2X receptors subtype 3, accession number AB016608 for clone A and accession number NM_002559 for clone B), expressed in RLE cells (rat liver […], ATCC. The RLE/hP2X3 cells were grown in William's medium 1× (Gibco, 12551-032), supplemented with 10% Fetal bovine serum (Wisent, 090850), 2 mM L-Glutamine (Wisent, 609-065-EL), and 600 μg/mL Geneticin G-418 (Wisent, 61234) in a humidified incubator (5% CO2 and 37° C.).
In a third assay, hP2X3-expressing cells were maintained in culture and the day before the experiment, the cells were plated in 384-black polylysine coated plates (Becton/Dickinson, 356663) at 8000 cells/well in 50 μL/well in William's medium without Geneticin, and then placed in an incubator for 24 hr. On the day of the experiment, the cells and test compounds were prepared as follows. […] Experiments were initiated by measuring a baseline fluorescence reading for 10 sec, followed by adding 12.5 μL of compounds and data sampling for a total 280 seconds. […] During entire experiment, fluorescence emission was read by the FLIPR on board CCD camera using filter with emission wavelength of 520-545 nm. […] Hill coefficients and % inhibitions can also be determined.

[2] = target: T1, hP2X3 (human Purinergic P2X receptors subtype 3); assay: Fluo-4 calcium mobilization assay on FDSS7000, ATP as agonist (Method 1); conditions: RLE cells stably expressing hP2X3; 2 uM ATP; 20 min preincubation; read-out: Human P2X3 IC50 (μM) Method 1
Protocol: as §1
(§2) In one assay, Fluo-4 assay on FDSS7000 (Hamamatsu) was performed using cryopreserved RLE cells stably expressing hP2X3 plated in 384 well plates, 24 hr before the experiment at a density appropriate for obtaining the desired final confluence. After processing the cell plates with Fluo-4 and performing a subsequent incubation followed by washing steps, a double addition was carried out. The first addition included the test compounds diluted in HBSS buffer containing 2 mM CaCl2 preincubated for 20 min before a second addition. The second addition included 2 uM of ATP. Calcium mobilization was measured with the FDSS7000 over a time lapse of 3 min, and fluorescent counts were exported for analysis. […] Hill coefficients and % inhibitions can also be determined.

[3] = target: T1, hP2X3 (human Purinergic P2X receptors subtype 3); assay: Fluo-4 calcium mobilization assay, α,β methylene-ATP as agonist (Method 2); conditions: RLE cells stably expressing hP2X3; α,β methylene-ATP instead of ATP; read-out: Human P2X3 IC50 (μM) Method 2
Protocol: as §1
as §2, with “The second addition included 2 uM of ATP.” left out, “determined. […]” for “determined.”

Row | IC50 [1] | IC50 [2] | IC50 [3] | Structure (SMILES)
1 | 0.016 µM |  |  | CNC(=O)c1cc(F)c(-c2nc3cc(C)ccc3n2C[C@@H]2CN(C(=O)OC)CCO2)c(F)c1 [Example 5, (R)-methyl 2-((2-(2,6-difluoro-4-(methylcarbamoyl)phenyl)-5-methyl-1H-benzo[d]imidazol-1-yl)methyl)morpholine-4-carboxylate]
2 | 0.016 µM | 0.007 µM | 0.014 µM | CNC(=O)c1cc(F)c(-c2nc3cc(C)ccc3n2C[C@H]2CN(C(=O)OC)CCO2)c(F)c1 [Example 3, (S)-methyl 2-((2-(2,6-difluoro-4-(methylcarbamoyl)phenyl)-5-methyl-1H-benzo[d]imidazol-1-yl)methyl)morpholine-4-carboxylate]
